Results: patent US20180116990A1, “COMPOSITION OF BIOACTIVE LIPIDS AND METHODS OF USE THEREOF” (UND Life Sciences, LLC, priority 2016, published 2018)
Where two headings read alike, the source gives them in different places.

Columns and labels:
[1] = tested on: VEGF-induced angiogenesis; test: effect of bioactive lipids on angiogenesis induced by VEGF in vitro (FIG. 10); type: cell-based; details: positive test control taken as 100%
Protocol: C=Control; T=positive test control taken as 100%; RSv=Resolvin E1; PRt=Protectin D1; MaR=Maresin; L+R+P+M=LXA4=resolvin D1+Protectin D1+Maresin in 1:1:1:1 ratio.
(§1) In another study, this was similar to the study given in Examples 5 and 6, except that in this instance different bioactive lipids singly and in combination were tested in combination with or without anti-VEGF antibody. Thus, in this study, experimental animals received LXA4, resolvin E1, resolvin D1, protectin D1, maresin 1 or a combination of LXA4+resolvin E1+protectin D1+maresin 1 (in the ratio of 1:1:1:1)±anti-VEGF antibody were given with appropriate control groups. In this study, dose of bioactive lipids used was 5 ng, 10 ng, 15 ng, 20 ng, 50 ng, 100 ng, 200 ng, 500 ng, 1 μg, 5 μg, or 25.0 μg once in 4 weeks for 3 months. […] A summary of the results obtained with bioactive lipids on angiogenesis (FIG. 10) in vitro; on STZ-induced cytotoxicity to vascular endothelial cells (FIG. 11); on LPS-induced IL-6 and TNF-α secretion by human macrophages in vitro (FIG. 12); on PGE2 and VEGF secretion by LPS stimulated ARPE cells in vitro (FIG. 13); leukocyte migration and adherence to endothelial cells in vitro (FIG. 14); and BDNF secretion by ARPE cells stimulated by LPS (FIG. 15) are given in respective figures.

[2] = tested on: vascular endothelial cells; test: STZ-induced cytotoxic action on vascular endothelial cells in vitro (FIG. 11); type: cell-based; details: STZ cytotoxicity taken as 100%
Protocol: C=Control; STZ=Streptozotocin-induced cytotoxicity taken as positive control taken as 100%; RSv=Resolvin E1; PRt=Protectin D1; MaR=Maresin; L+R+P+M=LXA4=resolvin D1+Protectin D1+Maresin in 1:1:1:1 ratio.
as §1

[3] = tested on: human macrophage cells; test: production of IL-6 and TNF-α by human macrophage cells stimulated with LPS in vitro (FIG. 12); type: cell-based; details: LPS stimulated increase taken as 100%
Protocol: C=Control; LPS stimulated increase in IL-6 and TNF-α production taken as 100%; RSv=Resolvin E1; PRt=Protectin D1; MaR=Maresin; L+R+P+M=LXA4=resolvin D1+Protectin D1+Maresin in 1:1:1:1 ratio.
as §1

[4] = tested on: adult human retinal pigment epithelial cells, ARPE 19 cells; test: production of PGE2 and VEGF by ARPE 19 cells exposed to LPS (FIG. 13); type: cell-based; details: LPS positive control taken as 100%
Protocol: C=Control; LPS=Positive control taken as 100%; RSv=Resolvin E1; PRt=Protectin D1; MaR=Maresin; L+R+P+M=LXA4=resolvin D1+Protectin D1+Maresin in 1:1:1:1 ratio.
as §1

[5] = tested on: leukocyte migration and adherence; test: leukocyte migration and adherence stimulated by LPS in vitro (FIG. 14); type: cell-based; details: LPS positive control taken as 100%
Protocol: C=Control; LPS=positive control taken as 100%; RSv=Resolvin E1; PRt=Protectin D1; MaR=Maresin; L+R+P+M=LXA4=resolvin D1+Protectin D1+Maresin in 1:1:1:1 ratio.
as §1

[6] = tested on: experimental animals with DR, AMD, DME, retinopathy of prematurity; test: intravitreal injection in experimental animals with DR, AMD, DME, retinopathy of prematurity (Examples 5-7, FIG. 16); type: in vivo; details: for regression of DR, AMD, DME, retinopathy of prematurity: all doses
From the text: The degree of DR in control is taken as 100% which received only the vehicle. All bioactive lipids are able to suppress/reverse/arrest DR to a significant degree. […] Similar results were obtained with AMD, DME and retinopathy of prematurity. AVA=Anti-VEGF antibody; LRPM=Lipoxin A4+resolvin+protectin+maresin; AVA+LRPM=Anti-VEGF antibody+Lipoxin A4+resolvin+protectin+maresin.
[…] with DR, AMD, DME, retinopathy of prematurity (each group consisting of 10 animals: total 40 animals) were treated by direct intravitreal injection of LXA4 free acid form of composition according the examples 1-4 in doses ranging from 10.0 μg/day once in a week for 4 weeks.
In another study, this was similar to the study given in Example 5, except that in this instance different bioactive lipids singly and in combination were tested. Thus, in this study, experimental animals received LXA4, resolvin E1, resolvin D1, protectin D1, maresin 1 or a combination of LXA4+resolvin E1+protectin D1+maresin 1 (in the ratio of 1:1:1:1) were given with appropriate control groups. In this study, different doses of bioactive lipids were used either 5 ng, 10 ng, 15 ng, 20 ng, 50 ng, 100 ng, 200 ng, 500 ng, 1 μg, 5 μg or ranging from 10.0 μg to 100.0 μg per week for 4 weeks; once in 4 weeks for 3 months.
as §1

[7] = effect of ethanol and albumin on stability of LXA4 in solution in vitro (Example 8, FIGS. 17-18); type: physicochemical
Protocol: C=Control (100%); Concentration of LXA4 used in the test system is 10 μg to which different concentrations of albumin is added and after a specific period of incubation the concentration of LXA4 present in the solution is tested. It is seen that when the % of albumin exceeded 0.01%, the stability of LXA4 is decreased. […] The test system used: LXA4 is dissolved in 0.01% ethanol (pH 7.4) at 37° C. to which different concentrations of albumin is added and at the end of incubation time the concentration of LXA4 present is tested to know whether albumin would influence the stability of LXA4 in the solution.
Concentration of LXA4 tested 100 ng. […] C=Control (100%) (expected). Various doses of albumin were added to LXA4 solution in saline/PBS/ethanol and the stability of LXA4 was tested at the end of different periods of incubation in days. Results were best when ethanol concentration in the solution is between 0.01 to 0.0001% and albumin concentration is between 0.01 to 0.0001%.
The effect of albumin as an exemplary stabilizing agent in compositions of bioactive lipids was tested as follows: To 250 ng of LXA4 dissolved in a solution of saline/PBS with or without 0.01% ethanol was added different concentrations of albumin and after a specific period of incubation the concentration of LXA4 present in the solution was tested.

[8] = production of other bioactive lipids (observation)
From the text: Thus, one bioactive lipid enhances the production and action of other bioactive lipids. In a surprise observation, inventor noted that LXA4 and other bioactive lipids function as autocrine factors enhancing their own production.

[9] = tested on: experimental animals with DR, AMD, DME, retinopathy of prematurity; test: intravitreal injection in experimental animals with DR, AMD, DME, retinopathy of prematurity (Examples 5-7, FIG. 16); type: in vivo; details: Example 5; 5 ng to 100.0 μg per week for 4 weeks; once in 4 weeks for 3 months; all doses tested
[10] = tested on: ARPE 19 cells; details: LPS induced ARPE 19 cells, cited from earlier work
[11] = tested on: adult human retinal pigment epithelial cells, ARPE 19 cells; test: production of BDNF by ARPE 19 cells exposed to LPS (FIG. 15); type: cell-based; details: saline control taken as 100%
Protocol: C=Saline control taken as 100%; LPS=LPS-induced decrease in BDNF production; RSv=Resolvin E1; PRt=Protectin D1; MaR=Maresin; L+R+P+M=LXA4=resolvin D1+Protectin D1+Maresin in 1:1:1:1 ratio.
as §1

[12] = tested on: neovascularization; details: retina; literature; cited from earlier work
[13] = Example 6, lipids singly and in combination, 5 ng to 100.0 μg per week for 4 weeks, once in 4 weeks for 3 months
[14] = Example 7, with or without anti-VEGF antibody, 5 ng to 25.0 μg once in 4 weeks for 3 months

Molecule	regression of DR, AMD, DME, retinopathy of prematurity [6, 13]	regression of DR, AMD, DME, retinopathy of prematurity [6, 14]	production of BDNF [11]	protection against neovascularization [12]	also measured
CCCCC[C@H](O)/C=C/C=C\C=C\C=C\[C@@H](O)[C@@H](O)CCCC(=O)O [LXA4, lipoxin A4]	substantial regression	substantial regression	–	–	suppression of VEGF-induced angiogenesis [1]: most effective; cytoprotective action against STZ-induced cytotoxic action [2]: most effective; production of IL-6 and TNF-α [3]: most effective; production of PGE2 and VEGF [4]: most potent; leukocyte migration and adherence [5]: most potent; reduction in the degree of DR, AMD, DME, and retinopathy of prematurity ([6]; Example 5, direct intravitreal injection, 10.0 μg/day once in a week for 4 weeks, all 40 animals): significant reduction; stability of LXA4 ([7]; Example 8, 250 ng LXA4 in saline/PBS, albumin between 0.01 to 0.0001% compared to LXA4 concentration): optimum; stability of LXA4 ([7]; Example 8, ratio LXA4/albumin 0.01% to 0.0001%, in the presence of 0.01% ethanol): more stable; stability of LXA4 ([7]; FIG. 17, albumin between 0.01% to 0.001%, LXA4 10 μg in 0.01% ethanol, pH 7.4, 37° C.): stable and active; stability of LXA4 ([7]; FIG. 17, albumin exceeded 0.01%, LXA4 10 μg in 0.01% ethanol, pH 7.4, 37° C.): decreased; stability of LXA4 at different times ([7]; FIG. 18, LXA4 100 ng in saline/PBS/ethanol, ethanol 0.01 to 0.0001% and albumin 0.01 to 0.0001%, incubation in days): best; production of other bioactive lipids such as resolvins, protectins and maresins [8]: enhanced; regression of DR, AMD, DME, retinopathy of prematurity [9]: substantial regression; IL-6 levels ([10]; 10 nmol/L, p=0.036): decreased
CC/C=C\C/C=C\C[C@H](O)\C=C/C=C/C=C/[C@H](O)C/C=C\CCC(=O)O [Maresin, maresin 1]	substantial regression	substantial regression	more potent than LXA4	–	–
CC/C=C\C[C@H](O)\C=C/C=C/C=C/[C@H](O)C/C=C\C/C=C\CCC(=O)O [Neuroprotectin D1, reference compound]	–	–	–	protected against neovascularization	–
CC/C=C\C[C@H](O)\C=C/C=C/C=C/[C@H](O)C/C=C\C/C=C\CCC(=O)O [Protectin D1, protectin D1]	substantial regression	substantial regression	more potent than LXA4	–	–
CC[C@@H](O)/C=C/C=C\C[C@@H](O)/C=C/C=C/C=C\[C@@H](O)CCCC(=O)O [Resolvin E1, resolvin E1]	substantial regression	substantial regression	more potent than LXA4	protected against neovascularization	–
CC/C=C\C[C@H](O)/C=C/C=C\C=C\C=C\[C@@H](O)[C@@H](O)C/C=C\CCC(=O)O [resolvin D1]	substantial regression	substantial regression	–	protected against neovascularization	–
BDNF: brain-derived neurotropic factor (BDNF), a neurotrophin (protein, UniProt P23560 19-247, looked up) Neurotrophic factor BDNF …: APMKEANIRGQGGLAYPGVRTHGTLESVNGPKAGSRGLTSLADTFEHVIEELLDEDQKVRPNEENNKDADLYTSRVMLSSQVPLEPPLLFLLEEYKNYLDAANMSMRVRRHSDPARRGELSVCDSISEWVTAADKKTAVDMSGGTVTVLEKVPVSKGQLKQYFYETKCNPMGYTKEGCRGIDKRHWNSQCRTTQSYVRALTMDSKKRIGWRFIRIDTSCVCTLTIKRGR	–	–	–	–	IL-6 levels ([10]; 500 pg, p=0.0002): decreased
